Results published in paper PMC7269481, “ZN148 Is a Modular Synthetic Metallo-β-Lactamase Inhibitor That Reverses Carbapenem Resistance in Gram-Negative Pathogens In Vivo” (Antimicrobial Agents and Chemotherapy, 2020).
Like-named read-outs stand apart in the source and are kept apart here.

Tests used:
[1] = tested on: VIM-2-producing P. aeruginosa K34-7; assay: Meropenem MIC, broth microdilution, indicator strain K34-7; assay type: cell-based
Experimental: (§1) MICs of carbapenems alone and in combination with inhibitors were determined by broth microdilution according to the Clinical and Laboratory Standards Institute (CLSI) guidelines ([48]) using either premade plates (TREK Diagnostic Systems/Thermo Fisher Scientific, East Grinstead, United Kingdom) with meropenem or in-house-prepared plates with meropenem, imipenem, and doripenem. ZN148 and other inhibitors were tested at a fixed concentration of 50 μM. Cation-adjusted Mueller-Hinton medium (TREK Diagnostic Systems/Thermo Fisher Scientific; Becton Dickinson, Franklin Lakes, NJ) were used as growth medium. The plates were incubated for 20 h at 37°C. ZN148, ZN222, ZN223, ZN228, and TPA were initially tested in combination with meropenem using two indicator strains: NDM-1-producing K. pneumoniae ([49], [50]) and VIM-2-producing P. aeruginosa ([51]). The activity of ZN148 were subsequently tested against two extended strain collections: (i) in combination with meropenem against MBL-producing Enterobacterales (n = 62), MBL-producing P. aeruginosa (n = 9) and MBL- and class D carbapenemase-coproducing Enterobacterales (n = 5) from the strain collection at the Norwegian National Advisory Unit on Detection of Antimicrobial Resistance and (ii) in combination with meropenem, imipenem, and doripenem against globally collected MBL-producing E. coli (n = 87), K. pneumoniae (n = 85), P. aeruginosa (n = 52), and A. baumannii (n = 6), MBL- and class A/D carbapenemase-coproducing E. coli (n = 11), K. pneumoniae (n = 15) and A. baumannii (n = 7) at IHMA Europe, Sàrl, Switzerland. E. coli ATCC 25922 and P. aeruginosa ATCC 27853 were used as quality control strains. The MBL inhibitors were also tested for intrinsic antibacterial activity against the strains.

[2] = tested on: strains harboring only the class A carbapenemase KPC; assay: Carbapenem potentiation, strains with only KPC; assay type: cell-based; settings: 50 μM ZN148
VIM-2 = molecular target: T1, VIM-2 (Escherichia coli, UniProt Q5U7L7); assay: Time-dependent inactivation kinetics of purified VIM-2 (nitrocefin); assay type: biochemical
T1 construct: made in house
Experimental: Protein expression and purification of NDM-1 and VIM-2 were performed as previously described ([36], [43], [57]). Stock solutions of purified NDM-1 and VIM-2 were prepared in 50 mM HEPES buffer (pH 7.5; Merck). Inhibition of NDM-1 and VIM-2 were determined for ZN148 and the analogues ZN222, ZN223, and ZN228 at different concentrations of inhibitor after preincubation times of 2, 8, 15, 25, and 32 min in 50 mM HEPES buffer (pH 7.5) supplemented with 1 μM ZnSO4 (Sigma-Aldrich) and bovine serum albumin (Sigma-Aldrich; final concentration, 2 μg/ml) at 25°C. Concentrations of 1 nM VIM-2 and 30 nM NDM-1 were used, and the reaction was initiated by the addition of 30 μM nitrocefin (Merck) for VIM-2 or 100 μM imipenem (Sigma-Aldrich) for NDM-1. The reaction was measured at 482 nm (VIM-2) or […] (NDM-1) in either standard 96-well plates (Thermo Fisher Scientific) for VIM-2 or UV-transparent 96-well plates (Corning, Kennebunk, ME) for NDM-1 at 25°C in a SpectraMax Plus plate reader (Molecular Devices). All of the enzyme and substrate concentrations indicated are the final concentrations in the assay. The enzyme activity as a percentage was calculated based on the initial velocity and compared to the control without inhibitor compound. All tests were performed at least in duplicates.
The observed rate constant (kobs) per inhibitor concentration was calculated from the slope of a semilog plot of the enzyme activity in percent versus preincubation time.
By fitting these values, the irreversible kinetic parameters maximum inactivation rate (kinact) and the inhibitor concentration that produces half-maximal rate of inactivation (KI) were obtained. Finally, the inhibitors were characterized by calculating kinact/KI. Where no saturation curve could be observed, KI and kinact were determined from the linear part of plot 1/kobs versus 1/[I].

NDM-1 = molecular target: T2, NDM-1 (Klebsiella pneumoniae, UniProt C7C422); assay: Zinc content determination by ICP-MS, NDM-1; assay type: biochemical; settings: ICP-MS after preincubation
T2 construct: made in house
T2 sequence (C7C422 29-270, looked up): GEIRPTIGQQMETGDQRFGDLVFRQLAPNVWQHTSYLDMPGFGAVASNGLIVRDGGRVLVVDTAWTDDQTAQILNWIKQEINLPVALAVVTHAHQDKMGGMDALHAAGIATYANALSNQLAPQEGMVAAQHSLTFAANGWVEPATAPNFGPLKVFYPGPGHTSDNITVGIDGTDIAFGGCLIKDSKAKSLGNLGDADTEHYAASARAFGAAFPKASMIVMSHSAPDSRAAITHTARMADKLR

[3] = tested on: MBL-producing Enterobacterales (n=234); assay: Meropenem MIC distribution, all MBL-producing Enterobacterales; assay type: cell-based; settings: for No. of strains with indicated MIC: MEM alone or +50 µM ZN148
Experimental: as §1

[4] = tested on: NDM-1-producing A. baumannii strains (n=6); assay: Carbapenem MIC, NDM-1-producing A. baumannii; assay type: cell-based
Experimental: as §1

[5] = tested on: NDM-1-producing K. pneumoniae K66-45; assay: Meropenem MIC, broth microdilution, indicator strain K66-45; assay type: cell-based; settings: for MIC: Klebsiella pneumoniae
Experimental: as §1

[6] = tested on: NDM-1-producing K. pneumoniae K66-45; assay: Time-kill assay; assay type: cell-based
Experimental: To determine the kinetics of killing of the meropenem-ZN148 combination, NDM-1-producing K. pneumoniae K66-45 (1 × 10^6 CFU/ml) in cation-adjusted Mueller-Hinton broth II (Sigma-Aldrich, St. Louis, MO) was treated with either 4 mg/liter meropenem or a combination of 4 mg/liter meropenem plus 50 or 100 μM ZN148 and grown at 37°C with shaking (180 rpm). The cell number was determined over the course of 24 h by using a modified Miles-Misra method ([52]). Briefly, […] serial dilutions of culture in sterile PBS were spotted and dried on square (10 by 10 cm) Luria-Bertani agar (Oxoid, Basingstoke, UK) plates at room temperature before incubation at 37°C. The limit of detection was set as […] in […] of undiluted culture, representing 100 CFU/ml.

[7] = tested on: 173 MBL-producing E. coli and K. pneumoniae strains; assay: Doripenem and imipenem MIC, MBL-producing E. coli and K. pneumoniae subset; assay type: cell-based; settings: 50 μM ZN148; 173 strains
Experimental: (§2) MICs of carbapenems alone and in combination with inhibitors were determined by broth microdilution according to the Clinical and Laboratory Standards Institute (CLSI) guidelines ([48]) using either premade plates (TREK Diagnostic Systems/Thermo Fisher Scientific, East Grinstead, United Kingdom) with meropenem or in-house-prepared plates with meropenem, imipenem, and doripenem. ZN148 and other inhibitors were tested at a fixed concentration of 50 μM. Cation-adjusted Mueller-Hinton medium (TREK Diagnostic Systems/Thermo Fisher Scientific; Becton Dickinson, Franklin Lakes, NJ) were used as growth medium. The plates were incubated for 20 h at 37°C. ZN148, ZN222, ZN223, ZN228, and TPA were initially tested in combination with meropenem using two indicator strains: NDM-1-producing K. pneumoniae ([49], [50]) and VIM-2-producing P. aeruginosa ([51]). […]

[8] = tested on: the strains (MBL-producing Gram-negative clinical strains); assay: Intrinsic antibacterial activity of the inhibitor; assay type: cell-based; settings: concentrations up to 500 μM
Experimental: as §2

[9] = tested on: Other Enterobacterales with MBLs (n=10); assay: Meropenem MIC distribution, other Enterobacterales with MBLs; assay type: cell-based; settings: MEM alone or +50 µM ZN148
Experimental: as §1

[10] = tested on: K. pneumoniae co-producing MBLs and class A/D serine carbapenemases; assay: Carbapenem MIC, K. pneumoniae co-producing MBLs and class D carbapenemases; assay type: cell-based
Experimental: as §1

[11] = meropenem 4 mg/liter with either 50 or 100 μM ZN148

CN(C[C@H](O)[C@@H](O)[C@H](O)[C@H](O)CO)C(=O)c1ccc(CN(Cc2ccccn2)Cc2ccccn2)nc1 [ZN148]
restoration of meropenem clinical susceptibility (EUCAST breakpoints) ([1]; inhibitor at 50 μM): fully restored meropenem clinical susceptibility
potentiation of meropenem, doripenem, or imipenem [2]: no potentiation
kinact (VIM-2): 0.00262 s⁻¹
kinact/KI (VIM-2): 110 M⁻¹ s⁻¹
zinc removed from enzyme (NDM-1): ~1.3 molar equivalents
strains with meropenem MIC reduced to susceptible levels (≤2 mg/liter) ([3]; ZN148 at 50 μM, n = 234): > 98%
reduction of meropenem MIC ([4]; in four of six clinical strains, class D carbapenemase-negative): > 2 fold
restoration of meropenem clinical susceptibility (EUCAST breakpoints) ([5]; inhibitor at 50 μM): fully restored meropenem clinical susceptibility
cell numbers after 8 h (below limit of detection) [6, 11]: < 1 × 10^2 CFU/ml
killing effect of combination [6, 11]: bactericidal
regrowth within 24 h [6, 11]: no regrowth
strains with doripenem MIC reduced to susceptible levels [7]: > 99%
strains with imipenem MIC reduced to susceptible levels [7]: > 99%
intrinsic antibacterial activity [8]: no intrinsic antibacterial activity

C[C@@H](O)[C@H]1C(=O)N2C(C(=O)O)=C(S[C@@H]3CN[C@H](C(=O)N(C)C)C3)[C@H](C)[C@H]12 [meropenem]
MIC ([1]; Pseudomonas aeruginosa, meropenem alone or +50 µM TPA or ZN148): 32 to 64 µg/mL
No. of strains with indicated MIC ([9]; MIC 4 mg/L): 1
No. of strains with indicated MIC ([9]; MIC 8 mg/L): 2
No. of strains with indicated MIC ([9]; MIC 16 mg/L): 3
No. of strains with indicated MIC ([9]; MIC 32 mg/L): 2
No. of strains with indicated MIC ([9]; MIC ≥64 mg/L): 2
MIC ([10]; NDM + OXA-48-like strains, meropenem alone or with 50µM ZN148, one value per strain): > 64 µg/mL
MIC ([10]; NDM-1 + OXA-181 strain, meropenem alone or with 50µM ZN148): > 64 µg/mL
MIC ([10]; NDM-5 + OXA-181 strains, carbapenem alone or with 50µM ZN148, one value per strain): > 64 µg/mL
MIC90 [3]: ≥ 64 µg/mL
No. of strains with indicated MIC ([3]; MIC 0.5 mg/L): 1
No. of strains with indicated MIC ([3]; MIC 1 mg/L): 2
No. of strains with indicated MIC ([3]; MIC 2 mg/L): 3
No. of strains with indicated MIC ([3]; MIC 4 mg/L): 10
No. of strains with indicated MIC ([3]; MIC 8 mg/L): 9
No. of strains with indicated MIC ([3]; MIC 16 mg/L): 22
No. of strains with indicated MIC ([3]; MIC 32 mg/L): 35
No. of strains with indicated MIC ([3]; MIC ≥64 mg/L): 152
MIC ([4]; carbapenem alone or in combination with 50µM ZN148, one value per strain (n=6)): > 64 µg/mL
MIC ([5]; alone or in presence of 30 µM, 50 µM or 100 µM ZN148 (Table S6 title), read-out: MIC of meropenem): > 32 µg/mL
MIC ([5]; meropenem alone or +50 µM TPA or ZN148, read-out: Meropenem MIC): 32 to 64 µg/mL
cell number after 24 h ([6]; meropenem alone 4 mg/liter): > 1 × 10^9 CFU/ml
initial reduction in cell numbers (bacteriostatic effect) ([6]; meropenem alone 4 mg/liter): 2 log
